The text below walks through data of patent US12202829B2, “Heterocyclic compound” (FIMECS, Inc., priority 2018, dated 2025).

The target in this assay is T1, human XIAP_BIR3 domain purified protein (Homo sapiens, UniProt P98170).
T1 construct: purchased R & D
Briefly: XIAP binding inhibitory activity, HTRF method with b-Smac ligand. The settings on record: test compound 3 μM; first symbol of the cell; read-out: XIAP binding inhibition rate when the concentration of the test compound is 3 μM. The procedure: Human XIAP binding inhibitory activity were measured by the Homogeneous Time Resolved Fluorescence (HTRF) method with using commercially available human XIAP_BIR3 domain purified protein (R & D) and as a ligand a Smac N-terminal peptide (AVPIAQK (SEQ ID NO: 1)) (hereinafter referred to as “b-Smac”; Peptide Research Laboratories, Inc.) biotinylated at the C-terminus according to a conventional method.
The HTRF method will be described in detail below. A test compound diluted with a reaction buffer was added to a 384-well white shallow bottom plate (Greiner 784076) at 1 μL/well and flash centrifuged for 30 seconds. Subsequently, human XIAP_BIR3 domain purified protein was diluted with the reaction buffer (25 mM HEPES Buffer containing 100 mM NaCl, 0.1% BSA, and 0.1% triton X-100, pH 7.5) to obtain a 90 nM sample diluent, and the resultant sample diluent was added to the above-mentioned white superficial plate at 4.5 μL/well and flash centrifuged for 30 seconds. Subsequently, b-Smac diluted to 90 nM with the reaction buffer was added to the above-mentioned white superficial plat at 4.5 μL/well and flash centrifuged for 30 seconds. A mixed solution of Anti-6 HIS-Cryptate (Eu3+Cryptate-conjugated mouse monoclonal antibody anti-6 Histidine; cisbio) and Streptavidin-XL^ent! (Highgrade XL665-conjugated streptavidin; cisbio) both diluted 100-fold with HTRF detection buffer (cisbio) at a volume ratio of 1:1 was added to the above white superficial plate at 10 μL/well. After flash centrifuging the white shallow bottom plate for 30 seconds, the white shallow bottom plate was left at room temperature for 4 hours or more in the dark. The white superficial plate after being left was subjected to fluorescence intensity measurement (excitation wavelength: 320 nm, fluorescence wavelength: 665 nm and 615 nm) by EnVision (Perkin Elmer).
The binding inhibition rate (%) was calculated based on the HTRF ratio in the presence of the test compound to the HTRF ratio in the absence of the test compound (fluorescence intensity at 665 nm/fluorescence intensity at 615 nm).

Where a name gives a salt, the structure may show the parent alone. Where only a bound is given, the exact number is not on record here.

T1 sequence (P98170 252-356 limits assumed): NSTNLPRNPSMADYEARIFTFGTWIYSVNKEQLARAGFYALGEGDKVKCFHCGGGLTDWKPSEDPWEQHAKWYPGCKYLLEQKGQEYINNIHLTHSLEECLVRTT

In the case of `CN[C@@H](C)C(=O)N[C@H](C(=O)N1CCN(C(=O)c2c(OCCOCCOCCO)c3cc(F)c(F)cc3n2C)CC1)C1CCCCC1` (stereo in doubt) [Example 62, (S)—N—((S)-1-Cyclohexyl-2-(4-(5,6-difluoro-3-(2-(2-(2-hydroxyethoxy)ethoxy)ethoxy)-1-methyl-1H-indole-2-carbonyl)piperazin-1-yl)-2-oxoethyl)-2-(methylamino)propanamide], the inhibition at 3 µM was 25 to 50%.

On to `CN[C@@H](C)C(=O)N[C@H](C(=O)N1CCN(C(=O)c2cc3ccc(OC)cc3n2C)CC1)C1CCCCC1` [Example 1, (S)—N—((S)-1-Cyclohexyl-2-(4-(6-methoxy-1-methyl-1H-indole-2-carbonyl)piperazin-1-yl)-2-oxoethyl)-2-(methylamino)propanamide Hydrochloride], for which the inhibition at 3 µM is greater than 75%.

Take `CN[C@@H](C)C(=O)N[C@H](C(=O)N1CCN(C(=O)c2ccn3nccc3c2)CC1)C1CCCCC1` [Example 2, (S)-N-((S)-1-cyclohexyl-2-oxo-2-(4-(pyrazolo[1,5-a]pyridine-5-carbonyl)piperazin-1-yl)ethyl)-2-(methylamino)propanamide]: the inhibition at 3 µM is 25 to 50%. As for `CN[C@@H](C)C(=O)N[C@H](C(=O)N1CCN(C(=O)c2cc3ccnn3cc2C)CC1)C1CCCCC1` [Example 3, (S)-N-((S)-1-cyclohexyl-2-(4-(6-methylpyrazolo[1,5-a]pyridine-5-carbonyl)piperazin-1-yl)-2-oxoethyl)-2-(methylamino)propanamide], the inhibition at 3 µM was in the range of 25 to 50%. As for `CN[C@@H](C)C(=O)N[C@H](C(=O)N1CCN(C(=O)c2ccn3nccc3c2C)CC1)C1CCCCC1` [Example 4, (S)-N-((S)-1-cyclohexyl-2-(4-(4-methylpyrazolo[1,5-a]pyridine-5-carbonyl)piperazin-1-yl)-2-oxoethyl)-2-(methylamino)propanamide], the figure is 50 to 75%; as for `CN[C@@H](C)C(=O)N[C@H](C(=O)N1CCN(C(=O)c2ccn3nccc3c2F)CC1)C1CCCCC1` [Example 5, (S)-N-((S)-1-cyclohexyl-2-(4-(4-fluoropyrazolo[1,5-a]pyridine-5-carbonyl)piperazin-1-yl)-2-oxoethyl)-2-(methylamino)propanamide], 25 to 50%. Regarding `CN[C@@H](C)C(=O)N[C@H](C(=O)N1CCN(C(=O)c2cc3ccnn3cc2F)CC1)C1CCCCC1` [Example 6, (S)-N-((S)-1-cyclohexyl-2-(4-(6-fluoropyrazolo[1,5-a]pyridine-5-carbonyl)piperazin-1-yl)-2-oxoethyl)-2-(methylamino)propanamide], the inhibition at 3 µM is greater than 25%. As to `CN[C@@H](C)C(=O)N[C@H](C(=O)N1CCN(C(=O)c2cc3ccccn3c2)CC1)C1CCCCC1` [Example 7, (S)-N-((S)-1-cyclohexyl-2-(4-(indolizine-2-carbonyl)piperazin-1-yl)-2-oxoethyl)-2-(methylamino)propanamide], the inhibition at 3 µM was greater than 75%.

As for `CN[C@@H](C)C(=O)N[C@H](C(=O)N1CCN(C(=O)c2cc(OCCOC)nn2C)CC1)C1CCCCC1` [Example 8, (S)-N-((S)-1-cyclohexyl-2-(4-(3-(2-methoxyethoxy)-1-methyl-1H-pyrazole-5-carbonyl)piperazin-1-yl)-2-oxoethyl)-2-(methylamino)propanamide], the inhibition at 3 µM was greater than 25%. For `CN[C@@H](C)C(=O)N[C@H](C(=O)N1CCN(C(=O)c2cc(C3CC3)nn2C)CC1)C1CCCCC1` [Example 9, (S)-N-((S)-1-cyclohexyl-2-(4-(3-cyclopropyl-1-methyl-1H-pyrazole-5-carbonyl)piperazin-1-yl)-2-oxoethyl)-2-(methylamino)propanamide] the value was greater than 25%; for `CCCc1cc(C(=O)N2CCN(C(=O)[C@@H](NC(=O)[C@H](C)NC)C3CCCCC3)CC2)n(C)n1` [Example 10, (S)-N-((S)-1-cyclohexyl-2-(4-(1-methyl-3-propyl-1H-pyrazole-5-carbonyl)piperazin-1-yl)-2-oxoethyl)-2-(methylamino)propanamide], greater than 25%. Take `CN[C@@H](C)C(=O)N[C@H](C(=O)N1CCN(C(=O)c2cc(C(F)(F)F)nn2C)CC1)C1CCCCC1` [Example 11, (S)-N-((S)-1-cyclohexyl-2-(4-(1-methyl-3-(trifluoromethyl)-1H-pyrazole-5-carbonyl)piperazin-1-yl)-2-oxoethyl)-2-(methylamino)propanamide]: the inhibition at 3 µM is greater than 25%.

For the compound `CCOc1cc(C(=O)N2CCN(C(=O)[C@@H](NC(=O)[C@H](C)NC)C3CCCCC3)CC2)n(C)n1` [Example 12, (S)-N-((S)-1-cyclohexyl-2-(4-(3-ethoxy-1-methyl-1H-pyrazole-5-carbonyl)piperazin-1-yl)-2-oxoethyl)-2-(methylamino)propanamide], the inhibition at 3 µM was greater than 25%. As to `CN[C@@H](C)C(=O)N[C@H](C(=O)N1CCN(C(=O)c2cc3cccnc3n2C)CC1)C1CCCCC1` [Example 13, (S)-N-((S)-1-cyclohexyl-2-(4-(1-methyl-1H-pyrrolo[2,3-b]pyridine-2-carbonyl)piperazin-1-yl)-2-oxoethyl)-2-(methylamino)propanamide], the inhibition at 3 µM is greater than 25%. For `CN[C@@H](C)C(=O)N[C@H](C(=O)N1CCN(C(=O)c2cc3ccc(F)cc3n2C)CC1)C1CCCCC1` [Example 14, (S)-N-((S)-1-cyclohexyl-2-(4-(6-fluoro-1-methyl-1H-indole-2-carbonyl)piperazin-1-yl)-2-oxoethyl)-2-(methylamino)propanamide], the inhibition at 3 µM lay within 50 to 75%. For `CN[C@@H](C)C(=O)N[C@H](C(=O)N1CCN(C(=O)c2cc3cc(F)ccc3n2C)CC1)C1CCCCC1` [Example 15, (S)-N-((S)-1-cyclohexyl-2-(4-(5-fluoro-1-methyl-1H-indole-2-carbonyl)piperazin-1-yl)-2-oxoethyl)-2-(methylamino)propanamide] the value was greater than 75%; for `CN[C@@H](C)C(=O)N[C@H](C(=O)N1CCN(C(=O)c2cc3cccc(C)c3n2C)CC1)C1CCCCC1` [Example 16, (S)-N-((S)-1-cyclohexyl-2-(4-(1,7-dimethyl-1H-indole-2-carbonyl)piperazin-1-yl)-2-oxoethyl)-2-(methylamino)propanamide], 50 to 75%; for `CN[C@@H](C)C(=O)N[C@H](C(=O)N1CCN(C(=O)c2ccc3cnn(C)c3c2)CC1)C1CCCCC1` [Example 17, (S)-N-((S)-1-cyclohexyl-2-(4-(1-methyl-1H-indazole-6-carbonyl)piperazin-1-yl)-2-oxoethyl)-2-(methylamino)propanamide], greater than 25%. Regarding `CN[C@@H](C)C(=O)N[C@H](C(=O)N1CCN(C(=O)c2ccc3nc(C)n(C)c3c2)CC1)C1CCCCC1` [Example 18, (S)-N-((S)-1-cyclohexyl-2-(4-(1,2-dimethyl-1H-benzo[d]imidazole-6-carbonyl)piperazin-1-yl)-2-oxoethyl)-2-(methylamino)propanamide], the inhibition at 3 µM is greater than 25%. As for `CN[C@@H](C)C(=O)N[C@H](C(=O)N1CCN(C(=O)c2ccc3nc(C)nn3c2)CC1)C1CCCCC1` [Example 19, (S)-N-((S)-1-cyclohexyl-2-(4-(2-methyl-[1,2,4]triazolo[1,5-a]pyridine-6-carbonyl)piperazin-1-yl)-2-oxoethyl)-2-(methylamino)propanamide], the inhibition at 3 µM is greater than 25%. With `CN[C@@H](C)C(=O)N[C@H](C(=O)N1CCN(C(=O)c2ccc3cc(C)cn3c2)CC1)C1CCCCC1` [Example 20, (S)-N-((S)-1-cyclohexyl-2-(4-(2-methylindolizine-6-carbonyl)piperazin-1-yl)-2-oxoethyl)-2-(methylamino)propanamide], the inhibition at 3 µM is greater than 75%.

For the compound `CN[C@@H](C)C(=O)N[C@H](C(=O)N1CCN(C(=O)c2ccn3cc(C)nc3c2)CC1)C1CCCCC1` [Example 21, (S)-N-((S)-1-cyclohexyl-2-(4-(2-methylimidazo[1,2-a]pyridine-7-carbonyl)piperazin-1-yl)-2-oxoethyl)-2-(methylamino)propanamide], the inhibition at 3 µM is greater than 25%. For `CN[C@@H](C)C(=O)N[C@H](C(=O)N1CCN(C(=O)c2ccc3nn(C)cc3c2)CC1)C1CCCCC1` [Example 22, (S)-N-((S)-1-cyclohexyl-2-(4-(2-methyl-2H-indazole-5-carbonyl)piperazin-l-yl)-2-oxoethyl)-2-(methylamino)propanamide] the value was 25 to 50%; for `CN[C@@H](C)C(=O)N[C@H](C(=O)N1CCN(C(=O)c2ccc3c(C)n(C)nc3c2)CC1)C1CCCCC1` [Example 23, (S)-N-((S)-1-cyclohexyl-2-(4-(2,3-dimethyl-2H-indazole-6-carbonyl)piperazin-1-yl)-2-oxoethyl)-2-(methylamino)propanamide], greater than 25%.
